In patent publication US9540337B2, “Gamma-glutamyl transpeptidase inhibitors and methods of use” (The Board of Regents of the University of Oklahoma, priority 2012, dated 2017):
Values joined by “and” are separate entries in the source; they are usually repeats but may differ in a detail not shown here. Identical values can stand only once. Like-named read-outs stand apart in the source and are kept apart here.

What was measured:
[1] = target: T1, Human GGT1 (hGGT) (Homo sapiens, UniProt P19440); assay: D-GpNA Hydrolysis Assay (release of pNA, 405 nm, pH 7.4); details: for Vo (maximum velocity at zero activator) / V∞ (maximum rate at infinite activator): Hydrolysis D-GpNA, Table 3; for maximal fold induction: human
T1 sequence (P19440 381-569 limits assumed): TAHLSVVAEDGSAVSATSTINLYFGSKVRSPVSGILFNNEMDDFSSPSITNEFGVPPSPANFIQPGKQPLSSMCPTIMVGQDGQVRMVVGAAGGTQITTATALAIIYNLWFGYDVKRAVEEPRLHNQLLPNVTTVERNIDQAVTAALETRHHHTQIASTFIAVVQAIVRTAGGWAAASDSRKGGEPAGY
T1 sequence (P19440 27-380 limits assumed): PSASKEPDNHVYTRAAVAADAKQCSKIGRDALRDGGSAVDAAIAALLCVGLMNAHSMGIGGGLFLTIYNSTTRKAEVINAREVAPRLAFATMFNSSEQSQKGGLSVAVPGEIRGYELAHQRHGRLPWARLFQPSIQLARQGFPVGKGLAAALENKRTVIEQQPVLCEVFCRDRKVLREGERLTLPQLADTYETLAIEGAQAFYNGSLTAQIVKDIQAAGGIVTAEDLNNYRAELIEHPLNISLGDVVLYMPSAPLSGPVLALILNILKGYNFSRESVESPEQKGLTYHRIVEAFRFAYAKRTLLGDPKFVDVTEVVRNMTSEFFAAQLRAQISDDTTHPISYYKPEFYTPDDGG
Description: (§1) Enzyme Isolation: Human GGT1 (P19440), lacking the transmembrane domain, was expressed in Pichia pastoris and isolated as previously described (14). […] One unit of GGT activity was defined as the amount of enzyme that released 1 μmol of paranitroaniline/min at 37° C. at pH 7.4 in the transpeptidation reaction.
The reaction was initiated with the addition of 19 mU GGT. The reaction was incubated at 37° C. and monitored continuously at 405 nm by a Bio-Rad model 680 microplate reader with Microplate Manager 5.2 software (Bio-Rad, Hercules, Calif.).
Data Analysis: Samples in each experiment were run in triplicate. Each inhibitor was evaluated in two or more independent experiments. Double reciprocal plots were generated to assess data quality and determine the correct rate equation for data fitting. Data were fitted using the proper rate equation and the Marquardt-Levenberg algorithm supplied with the Enzfitter program (BIOSOFT, Cambridge, UK). Kinetic parameters with standard errors were estimated using a simple weighting method.
Data adhering to Michaelis-Menten Kinetics were fitted to eq. 1. Data for initial rate patterns with D-, L-GpNA varied at different fixed levels of glygly were fitted to eq. […] Data for competitive and uncompetitive inhibition were fitted to eqs. 3 and 4. Data for the dependence of Vmax and Vmax/KD-GpNA on the concentration of activator were fitted using eq. 5 (25).
In eqs 1-6, Vmax are the initial and maximum rates, respectively, Ka and Kb are Michaelis constants for substrates A and B, respectively, and Kis and Kii are slope and intercept inhibition constants. In eq. 5, a is the value of Vmax or Vmax/KD-GpNA at zero activator/inhibitor, KID is the activation or inhibition constant, and KIN is a constant that causes the parameter to go to a constant value at infinite concentrations of X, the activator/inhibitor. The product a(KID/KIN) is the value of Vmax or Vmax/KD-GpNA at infinite activator/inhibitor (25). Data for noncompetitive inhibition were fitted to eq. 6. Data for the dependence of Vmax and Vmax/KD-GpNA on the concentration of activator were fitted using […].
as §1, with “hGGT” for “Human GGT1”, “described.” for “described (14).”, “reaction with L-GpNA.” for “reaction.”
D-GpNA Hydrolysis Assay: The assay was carried out as previously described. […] The reaction was initiated with the addition of 19 mU GGT as determined by the L-GpNA transpeptidation assay. The reaction was incubated at 37° C. and monitored continuously at 405 nm.

[2] = target: T1, Human GGT1 (hGGT); assay: L-GpNA Transpeptidation Assay with GlyGly as acceptor; type: biochemical; set-up: lacking the transmembrane domain; made in house; host or cells: Pichia pastoris; details: for fold change in L-GpNA Kii (transpeptidation) relative to Compound 16: weaker than Compound 16
Description: Transpeptidation Reaction: The same assay buffer was used for both the hydrolysis reaction and the transpeptidation reaction. The transpeptidation reaction included 40 mM glycylglycine (glygly, Sigma, St. Louis, Mo.) as the acceptor. […] The concentration of L-GpNA was 3 mM for experiments in which the concentration of glygly was varied. To initiate the transpeptidation reaction, 4 mU GGT were added.
1. […] 3 and 4. […] 5 (25).
L-GpNA Transpeptidation Assay: The assay has been described previously. […] The concentration of L-GpNA was 3 mM for experiments in which the concentration of GlyGly was varied. To initiate the transpeptidation reaction, 4 mU GGT were added.

[3] = target: T2, hGGT (Homo sapiens, UniProt P19440); assay: L-Glutamate Release Assay (Hydrolysis of GSH); type: biochemical; details: for Ki: read-out: GSH Kii
T2 construct: lacking the transmembrane domain; made in house; host or cells: Pichia pastoris
T2 sequence (P19440 381-569 limits assumed): as the sequence (P19440 381-569 limits assumed) above
T2 sequence (P19440 27-380 limits assumed): as the sequence (P19440 27-380 limits assumed) above
Description: L-Glutamate Release Assay (Hydrolysis of GSH): This assay measures the production of glutamate from the hydrolysis of GSH by GGT enzyme and has been described in detail previously. The concentration of the substrate, GSH, was varied from 5 μM to 20 μM. The concentration of the inhibitors, OU749 and its analogs, were varied from 15.6 μM to 250 μM. The reaction was initiated with the addition of 10 mU hGGT. […] All compounds were also evaluated as inhibitors of glutamate dehydrogenase, the enzyme in the second half of the L-glutamate release assay. None of the compounds in this study inhibited glutamate dehydrogenase.

[4] = pH 7.4, read-out: Fold Activation
[5] = read-out: activation of the Vmax for hydrolysis (V∞/Vo)
[6] = Table 3, read-out: Transpeptidation GlyGly Kis
[7] = Table 3, read-out: Transpeptidation L-GpNA Kii
[8] = Table 5, read-out: GlyGly with L-GpNA Kis
[9] = Table 5, read-out: L-GpNA with GlyGly Kii

Row | Vo (maximum velocity at zero activator) [1] [mM/min/nM] | V∞ (maximum rate at infinite activator) [1] [mM/min/nM] | maximal fold induction [1, 4] | maximal fold induction [1, 5] | Ki [2, 6] | Ki [2, 7] [µM] | Ki ([3]; GSH hydrolysis, Table 5) [µM] | Ki [2, 8] [µM] | Ki [2, 9] [µM] | SMILES | also measured
1 | 1.30 ± 0.01 | 5.86 ± 0.23 | 4.51 ± 0.05 | 3 to 6 | 43.8 ± 7.7 µM | 119 ± 7.1 |  |  |  | O=[N+]([O-])c1ccc(S(=O)(=O)Nc2nnc(Cc3cccc(Cl)c3)s2)cc1 [Compound 15] | fold change in L-GpNA Kii (transpeptidation) relative to Compound 16 [2]: 2 fold
2 | 2.62 ± 0.79 | 11.25 ± 4.27 | 4.29 ± 2.2 | 3 to 6 | 56.9 ± 8.3 µM | 113 ± 5.2 |  |  |  | Cc1ccc(Cc2nnc(NS(=O)(=O)c3ccc([N+](=O)[O-])cc3)s2)cc1 [Compound 17] | 
3 | 1.15 ± 0.01 | 5.08 ± 0.20 | 4.42 ± 0.64 | 3 to 6 | 34.3 ± 0.9 µM | 121 ± 8.8 |  |  |  | Cc1cccc(Cc2nnc(NS(=O)(=O)c3ccc([N+](=O)[O-])cc3)s2)c1 [Compound 18] | fold change in L-GpNA Kii (transpeptidation) relative to Compound 16 [2]: 2 fold
4 | 1.53 ± 0.09 | 5.39 ± 0.28 | 3.52 ± 0.6 | 3 to 6 | 31.8 ± 0.7 µM |  |  |  |  | O=[N+]([O-])c1ccc(S(=O)(=O)Nc2nnc(Cc3ccc(F)cc3)s2)cc1 [Compound 19] | 
5 |  |  |  |  | 10 µM and 10.3 µM |  |  |  |  | O=[N+]([O-])c1ccc(S(=O)(=O)Nc2nnc(Cc3ccc(Cl)c(Cl)c3)s2)cc1 [Compound 20] | Ki ([3]; Compound 20, inhibition of GSH hydrolysis, Table 7): 859 ± 83 µM; Ki ([1]; read-out: D-GpNA Kii, Compound 20, Table 7): 78 ± 2 µM; Ki ([1]; read-out: Kii with D-GpNA, competitive inhibition of the hydrolysis reaction, Compound 20, competitive vs D-GpNA): 78 µM and 78.2 µM
6 |  |  |  |  |  |  | 121 ± 5 | 30 ± 5 | 129 ± 17 | Cc1cccc(Cc2nnc(NS(=O)(=O)c3ccc(N)cc3)s2)c1 [Compound 24] | Ki ([1]; read-out: D-GpNA Kii, Table 5): 109 ± 4 µM

The next lines start with the compound.

Row | SMILES | Vo (maximum velocity at zero activator) [1] [mM/min/nM] | V∞ (maximum rate at infinite activator) [1] [mM/min/nM] | maximal fold induction [1, 4] | maximal fold induction [1, 5] | Ki [2, 6] | Ki [2, 7] [µM] | Ki ([3]; GSH hydrolysis, Table 5) [µM] | Ki [2, 8] [µM] | Ki [2, 9] [µM] | also measured
7 | O=[N+]([O-])c1ccc(S(=O)(=O)Nc2nnc(Cc3ccc(Cl)cc3)s2)cc1 [Compound 16] | 1.71 ± 0.09 | 7.70 ± 0.46 | 4.5 ± 0.63 | 3 to 6 | 44.4 ± 3.4 µM | 61.9 |  |  |  | Ki ([2]; Table 7, read-out: L-GpNA with GlyGly Kii): 62 ± 2 µM
8 | COc1ccc(Cc2nnc(NS(=O)(=O)c3ccc(N)cc3)s2)cc1 [Compound 21] |  |  |  |  |  |  |  |  |  | Ki ([3]; GSH hydrolysis, Table 4): 105 ± 14 µM; fold more potent than OU749 in inhibiting GSH hydrolysis ([3]; relative to OU749): 3.6 fold; Ki ([1]; read-out: D-GpNA Kii, Table 4): 31 ± 1 µM; Ki ([2]; Table 4, read-out: GlyGly with L-GpNA Kis): 10 ± 1 µM; Ki ([2]; Table 4, read-out: L-GpNA with GlyGly Kii): 36 ± 1 µM
9 | Nc1ccc(Cc2nnc(NS(=O)(=O)c3ccc(N)cc3)s2)cc1 [Compound 23] |  |  |  |  |  |  | 102 ± 16 | 15 ± 1 | 181 ± 20 | Ki [1]: 29 ± 3 µM
10 | Nc1ccc(S(=O)(=O)Nc2nnc(Cc3ccccc3)s2)cc1 [Compound 25] |  |  |  |  |  |  | 242 ± 6 | 42 ± 2 | 74 ± 4 | Ki [1]: 58 ± 6 µM
11 | Nc1ccc(S(=O)(=O)Nc2nnc(Cc3ccc(F)cc3)s2)cc1 [Compound 26] |  |  |  |  |  |  | 355 ± 16 | 47 ± 7 | 58 ± 4 | Ki [1]: 24 ± 2 µM
12 | NS(=O)(=O)c1ccccc1.[Na] [SBS, Sodium benzenesulfonamide, reference compound] |  |  |  |  |  |  |  |  |  | fold less effective than OU749 in inhibiting hydrolysis of D-GpNA ([1]; relative to OU749): more than 2.000 fold; Ki ([2]; SBS, read-out: Kii, transpeptidation, vs L-GpNA): 28800 ± 1600 µM; Ki ([2]; SBS, read-out: Kis, transpeptidation, vs GlyGly): 2280 ± 70 µM
13 | N[C@H](C(=O)O)[C@@H]1CC(Cl)=NO1 [acivicin, reference compound] |  |  |  |  |  |  |  |  |  | kon ([1]; pH 7.4, read-out: kon (second order rate constant)): 2.85 M⁻¹ s⁻¹; kon ([1]; pH 7.4, read-out: kon corrected for the presence of D-GpNA): 8 M⁻¹ s⁻¹
